Experimental data published in article PMC4178217, “Quinoline 3-sulfonamides inhibit lactate dehydrogenase A and reverse aerobic glycolysis in cancer cells” (Cancer & Metabolism, 2013).

Key:
recombinant human LDHA = recombinant human LDHA (Homo sapiens, UniProt P00338); assay: recombinant human LDHA enzyme assay (lactate to pyruvate, NADH via diaphorase/resazurin)
recombinant human LDHB = recombinant human LDHB (Homo sapiens, UniProt P07195); assay: recombinant human LDHB enzyme assay (lactate to pyruvate, NADH via diaphorase/resazurin)
Snu398 cells [1] = assay: Lactate production assay, Snu398 (RapidFire-MS)
Snu398 cells [2] = assay: Compound cellular permeability assay, whole-cell extract; format: in vitro ADME, human; conditions: Snu398 treated with 1 μM for 1.5 h
Procedure: Compound cellular permeability assays For cytosolic permeability assay, twelve million Snu398 cells were allowed to attach overnight and treated with DMSO control or 1 µM Compound 2 for 1.5 h in 1.7 mM glucose medium. The medium was removed, cells were washed in phosphate-buffered saline (PBS), and cytosolic extracts were prepared by solubilization in Qproteome lysis buffer (Qiagen, Valencia, CA). For whole-cell permeability assay, 75,000 Snu398 cells/well were plated in 96-well plates and treated with DMSO control or 1 µM compounds for 1.5h in low glucose medium. The medium was removed, cells were washed in PBS and solubilized in 50:50 mixture of methanol and acetonitrile. Compound concentration in the cytosolic or whole-cell extract was determined by LC/MS/MS analysis. An Acquity UPLC system (Waters Inc., Milford, MA) was coupled to an API 4000 or API 5000 triple-quad mass spectrometer (Applied Biosystems). […] Compound concentration in cells was determined by counting the number of cells in sample wells and assuming 3 pL/cell volume.

Chain of recombinant human LDHB (P07195 whole entry): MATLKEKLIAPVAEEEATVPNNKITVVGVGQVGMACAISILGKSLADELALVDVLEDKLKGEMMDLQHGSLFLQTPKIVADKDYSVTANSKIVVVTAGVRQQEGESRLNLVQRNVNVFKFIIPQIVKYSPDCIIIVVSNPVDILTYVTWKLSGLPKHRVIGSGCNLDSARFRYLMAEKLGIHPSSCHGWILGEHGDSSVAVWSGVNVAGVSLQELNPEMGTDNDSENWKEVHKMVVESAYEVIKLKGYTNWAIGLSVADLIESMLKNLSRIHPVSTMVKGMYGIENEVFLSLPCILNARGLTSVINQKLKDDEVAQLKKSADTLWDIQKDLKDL

SMILES | mode of LDHA inhibition (recombinant human LDHA) | IC50 (recombinant human LDHB) [µM] | effect on cellular lactate production (Snu398 cells [1]; Snu398) | IC50 (recombinant human LDHA) [µM] | apparent intracellular concentration versus medium (Snu398 cells [2]) | EC50 (Snu398 cells [1]; Homo sapiens, SNU-398, read-out: lactate production EC50) [µM]
COc1cc2c(Nc3cccc(C(=O)O)c3)c(C(N)=O)cnc2cc1-c1c(C)noc1C | NADH-competitive LDHA inhibitor |  |  |  |  | 
COc1ncc(-c2ccc3c(Nc4cc(Oc5ccc(F)cc5)cc(C(F)(F)F)c4)c(S(=O)(=O)NC4CC4)cnc3c2)c(OC)n1 [Compound 4] |  | > 50 | does not affect cellular lactate | > 50 |  | 
COc1ncc(-c2ccc3c(Nc4cc(Oc5ccc(F)cc5)cc(S(N)(=O)=O)c4)c(S(=O)(=O)NC4CC4)cnc3c2)c(OC)n1 [Compound 3] |  | 0.055 ± 0.009 |  |  | higher apparent intracellular concentrations than that of the medium | 3.3 ± 1.3
